Assay results from patent US12116371B2, “Substituted pyridines as irreversible inhibitors of menin-MLL interaction” (BIOMEA FUSION, INC., priority 2018, dated 2024).
Read-outs that look alike come from different tables or passages of the source.

Legend:
KG-1 cells = assay: Long term proliferation assay, Cell Titer-Glo read-out; assay type: cell-based; settings: for IC50: Homo sapiens
Procedure: (§1) Compounds of invention are tested in the 5 suspension lines by 14-day long-term proliferation assay.
(§2) The compound is tested in 10-pt dose titration (client will determine the starting concentration and the dilution scheme) and the final DMSO concentration is kept at 0.2%.
(§3) On Day 0, in a flat bottom 96-well plate, add 100 μL of cells per well at the densities optimized. Prepare compounds in DMSO at 500× final concentration. Dilute the compounds with DMSO at the dilution. Dilute the compounds in media at 3× final concentration. Add 50 μL of compound or DMSO at 3× final concentration to each well. Final volume in each well is 150 μL, and final concentration of DMSO is 0.2%. Also include 3 untreated control wells, by adding 50 μL of media alone. Incubate plates for 96 hours.
(§4) To do this take the total viable cell count calculated using step: • 1. Take the average of the replicates for each dose in order to be used in splitting the cells. • 2. Use a 96 well V-bottom plate to spin down the cells to remove old media and compound to split the cells. • 3. Based on the split ratio place the proper amount of media and cells into the V-bottom plate, and spin the plate at 1100 rpm for 5 minutes. • 4. Following the spin remove the media, careful not to disturb the cell pellet. Re-suspend pellet in 100 μL fresh media, and add to a new 96-well flat bottom plate. • 5. Add fresh compound, in the same manner as Step 3). • 6. Incubate plates for 72 hours. Repeat steps 5)-10) on Day 7. • 7. Incubate plates for 96 hours. Repeat Step 5)-10) on Day 11. • 8. Incubate 72 hours and repeat step 5) to take a final count. • 9. Data Analysis
(§5) To calculate growth for days 4, 7, 11, and 14: • 1. Calculate the split factor for day 4 to 7, day 7 to 11, and day 11-14. The split factor is the viable cells/mL on Day X (either 4, 7 or 11) divided by the density the cells are being split back to. • 2. For growth of cells from day 4 to 7, multiply the day 7 viable cells/mL density by the split factor from day 4. • 3. For growth of cells from day 7 to 11, multiply the day 11 viable cells/mL density by the days 4, and 7 split factors. • 4. For growth of cells from Day 11 to 14, multiply the Day 14 viable cells/mL density by the days 4, 7, and 11 split factors. • 5. Plot growth on semi-log chart (viable cells/mL on Y axis, in log, and days on X axis). • 6. The growth inhibition was calculated with the formula ((untreated cell numbers-treated cell numbers)/untreated cell)). • 7. Calculate the IC50 for each compound in each line using XLFit (Sigmoidal Dose-Response Model, y=(Bottom+((Top-Bottom)/(1+((IC50/×)^Hill))))).

OCI-AML-3 cells = assay: as above; assay type: cell-based; settings: for IC50: Homo sapiens; for % max: OCI-AML3
Procedure: as §1, §2, §3, §4, §5

MOLM-13 cells = assay: Long term proliferation assay, InCell read-out; assay type: cell-based, human; settings: for IC50: Homo sapiens
Procedure: as §1, §2, §3, §4, §5

MV4-11 cells = assay: Long term proliferation assay, InCell read-out; assay type: cell-based, human; settings: for IC50: Homo sapiens
Procedure: as §1, §2, §3, §4, §5

SK-LU-1 cells = assay: Proliferation assay, cells in adhesion; assay type: cell-based; settings: for IC50: Homo sapiens
SK-LU-1/AMG510 cells = assay: Proliferation assay, cells in adhesion; assay type: cell-based; settings: for IC50: Homo sapiens

IC50 (OCI-AML-3 cells; OCI-AML-3, 96 h, OCI-AML-3, Day 4, Cell Titer-Glo, read-out: Day 4 IC50): 830 nM
IC50 (OCI-AML-3 cells; OCI-AML-3, 168 h, OCI-AML-3, Day 7, Cell Titer-Glo, read-out: Day 7 IC50): 660 nM
IC50 (OCI-AML-3 cells; OCI-AML-3, 264 h, OCI-AML-3, Day 11, Cell Titer-Glo, read-out: Day 11 IC50): 580 nM
IC50 (OCI-AML-3 cells; OCI-AML-3, 336 h, OCI-AML-3, Day 14, Cell Titer-Glo, read-out: Day 14 IC50): 600 nM
IC50 (OCI-AML-3 cells; OCI-AML-3, OCI-AML3, T4, CellTiter-Glo, read-out: IC50): 830 nM
IC50 (OCI-AML-3 cells; OCI-AML-3, OCI-AML3, T4, CellTiter-Glo, read-out: pIC50 (converted)): 832 nM
IC50 (OCI-AML-3 cells; OCI-AML-3, OCI-AML3, T11, CellTiter-Glo, read-out: IC50): 580 nM
IC50 (OCI-AML-3 cells; OCI-AML-3, OCI-AML3, T11, CellTiter-Glo, read-out: pIC50 (converted)): 575 nM
IC50 (MOLM-13 cells; MOLM-13, 96 h, MOLM-13, Day 4, read-out: Day 4 IC50): 150 nM
IC50 (MOLM-13 cells; MOLM-13, 264 h, MOLM-13, Day 11, read-out: Day 11 IC50): 380 nM
IC50 (MOLM-13 cells; MOLM-13, MOLM-13, T4, read-out: IC50): 150 nM
IC50 (MOLM-13 cells; MOLM-13, MOLM-13, T4, read-out: pIC50 (converted)): 148 nM
IC50 (MOLM-13 cells; MOLM-13, MOLM-13, T11, read-out: IC50): 380 nM
IC50 (MOLM-13 cells; MOLM-13, MOLM-13, T11, read-out: pIC50 (converted)): 380 nM
IC50 (MV4-11 cells; MV4-11, 96 h, MV4-11, Day 4, read-out: Day 4 IC50): 420 nM
IC50 (MV4-11 cells; MV4-11, 264 h, MV4-11, Day 11, read-out: Day 11 IC50): 490 nM
IC50 (MV4-11 cells; MV4-11, MV4-11, T4, read-out: IC50): 420 nM
IC50 (MV4-11 cells; MV4-11, MV4-11, T4, read-out: pIC50 (converted)): 417 nM
IC50 (MV4-11 cells; MV4-11, MV4-11, T11, read-out: IC50): 490 nM
IC50 (MV4-11 cells; MV4-11, MV4-11, T11, read-out: pIC50 (converted)): 490 nM
IC50 (SK-LU-1 cells; SK-LU-1, SK-LU-1, T4, read-out: IC50): > 5000 nM
IC50 (SK-LU-1 cells; SK-LU-1, SK-LU-1, T4, read-out: pIC50 (converted)): > 5010 nM
IC50 (SK-LU-1 cells; SK-LU-1, SK-LU-1, T7, read-out: IC50): > 5000 nM
IC50 (SK-LU-1 cells; SK-LU-1, SK-LU-1, T7, read-out: pIC50 (converted)): > 5010 nM
IC50 (SK-LU-1 cells; SK-LU-1, SK-LU-1, T11, read-out: IC50): > 5000 nM
IC50 (SK-LU-1 cells; SK-LU-1, SK-LU-1, T11, read-out: pIC50 (converted)): > 5010 nM
IC50 (SK-LU-1/AMG510 cells; SK-LU-1, SK-LU-1/AMG510, T4, read-out: IC50): > 5000 nM
IC50 (SK-LU-1/AMG510 cells; SK-LU-1, SK-LU-1/AMG510, T4, read-out: pIC50 (converted)): > 5010 nM
IC50 (SK-LU-1/AMG510 cells; SK-LU-1, SK-LU-1/AMG510, T7, read-out: IC50): > 5000 nM
IC50 (SK-LU-1/AMG510 cells; SK-LU-1, SK-LU-1/AMG510, T7, read-out: pIC50 (converted)): > 5010 nM
IC50 (SK-LU-1/AMG510 cells; SK-LU-1/AMG510, T11, read-out: IC50): > 5000 nM
IC50 (SK-LU-1/AMG510 cells; SK-LU-1/AMG510, T11, read-out: pIC50 (converted)): > 5010 nM
SMILES: CN(C)C/C=C/C(=O)Nc1ccc(CC(=O)Nc2ccc(-c3cc4c(N5CCOCC5)ncnc4[nH]3)cc2)cc1 [Compound 5]
IC50 (KG-1 cells; 96 h, Day 4, Cell Titer-Glo, read-out: Day 4 IC50): > 5000 nM
IC50 (KG-1 cells; 168 h, Day 7, Cell Titer-Glo, read-out: Day 7 IC50): > 5000 nM
IC50 (KG-1 cells; 264 h, Day 11, Cell Titer-Glo, read-out: Day 11 IC50): 4680 nM
IC50 (KG-1 cells; 336 h, Day 14, Cell Titer-Glo, read-out: Day 14 IC50): 4070 nM
IC50 (KG-1 cells; T4, CellTiter-Glo, read-out: IC50): > 5000 nM
IC50 (KG-1 cells; T4, CellTiter-Glo, read-out: pIC50 (converted)): > 5010 nM
IC50 (KG-1 cells; T11, CellTiter-Glo, read-out: IC50): 4680 nM
IC50 (KG-1 cells; T11, CellTiter-Glo, read-out: pIC50 (converted)): 4680 nM
% max (KG-1 cells; T4, CellTiter-Glo): <50%
% max (KG-1 cells; T11, CellTiter-Glo): 59%
% max (OCI-AML-3 cells; T4, CellTiter-Glo): 97%
% max (OCI-AML-3 cells; T11, CellTiter-Glo): 99%
% max (MOLM-13 cells; MOLM-13, T4): 97%
% max (MOLM-13 cells; MOLM-13, T11): 98%
% max (MV4-11 cells; MV4-11, T4): 83%
% max (MV4-11 cells; MV4-11, T11): 83%
% max (SK-LU-1 cells; SK-LU-1, T4): <50%
% max (SK-LU-1 cells; SK-LU-1, T7): <50%
% max (SK-LU-1 cells; SK-LU-1, T11): <50%
% max (SK-LU-1/AMG510 cells; SK-LU-1/AMG510, T4): <50%
% max (SK-LU-1/AMG510 cells; SK-LU-1/AMG510, T7): <50%
% max (SK-LU-1/AMG510 cells; SK-LU-1/AMG510, T11): <50%
